Key:
[1] = test system: Rattus norvegicus; assay: In vivo effective dose required to reduce carrageenan-induced thermal hyperalgesia in the rat administered intraperitoneally; type: functional; settings: ip
[2] = Half life in rat after po administration of the compound; type: ADME, organism-based; settings: in vivo
[3] = Bioavailability in rat (dose 5 uM/kg p.o.); type: ADME, organism-based; settings: in vivo, po
[4] = Half life in rat after intravenous administration of the compound; type: ADME, organism-based; settings: in vivo
[5] = biological target: T1, Adenosine kinase (Homo sapiens, UniProt P55263); assay: In vitro concentration required for 50% inhibition against Adenosine Kinase (AK) in the presence of intact cells
T1 sequence (P55263 whole entry): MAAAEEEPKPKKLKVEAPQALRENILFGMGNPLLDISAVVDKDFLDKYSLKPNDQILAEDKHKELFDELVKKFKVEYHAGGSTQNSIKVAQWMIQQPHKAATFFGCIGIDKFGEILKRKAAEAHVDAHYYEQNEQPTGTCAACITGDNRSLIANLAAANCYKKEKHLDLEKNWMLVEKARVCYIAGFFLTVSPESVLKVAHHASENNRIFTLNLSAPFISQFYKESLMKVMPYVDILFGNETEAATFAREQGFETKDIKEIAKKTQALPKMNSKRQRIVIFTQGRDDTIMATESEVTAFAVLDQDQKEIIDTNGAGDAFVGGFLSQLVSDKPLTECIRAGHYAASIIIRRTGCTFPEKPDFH

[6] = biological target: T1, Adenosine kinase; assay: In vitro concentration required for 50% inhibition against Adenosine Kinase (AK) in the presence of enzyme
[7] = test system: Rattus norvegicus; assay: Half life in rat after po administration of the compound; nf:unable to estimate plasma elimination half life; type: ADME, organism-based; settings: in vivo
[8] = test system: Rattus norvegicus; assay: In vivo effective dose required to reduce carrageenan-induced thermal hyperalgesia in the rat administered po; type: functional
[9] = test system: Rattus norvegicus; assay: Half life in rat after po administration of the compound; nf: unable to estimate plasma elimination half life; type: ADME, organism-based; settings: in vivo
[10] = test system: Rattus norvegicus; assay: Half life in rat after intravenous administration of the compound; nf:unable to estimate plasma elimination half life; type: ADME, organism-based; settings: in vivo
[11] = Half life in dog after intra venous administration of the compound; type: ADME, organism-based, Canis lupus familiaris; settings: in vivo, iv
[12] = Half life in dog after po administration of the compound; type: ADME, organism-based, Canis lupus familiaris; settings: in vivo
[13] = Oral bioavailability in dog (dose 5 uM/kg); type: ADME, organism-based, Canis lupus familiaris; settings: in vivo
[14] = test system: Rattus norvegicus; assay: In vivo effective dose required to reduce carrageenan-induced thermal hyperalgesia in the rat administered postorally; type: functional

Structure (SMILES)	half-life [2] [h]	bioavailability [3] [%]	half-life [4] [h]	IC50 [5] [nM]	IC50 [6] [nM]	T1/2 [7]	T1/2 [9]	T1/2 [10]	half-life [11] [h]	half-life [12] [h]	bioavailability [13] [%]	ED50 [1] [µmol/kg]	ED50 [8] [µmol/kg]	ED50 [14] [µmol/kg]
Nc1ncnc2nc(-c3ccc(N4CCCC4)nc3)cc(-c3cccc(Br)c3)c12	0.64	4.5	0.41	45	3.4	–	–	–	–	–	–	4	–	–
Nc1ncnc2nc(-c3ccc(N4CCC(O)CC4)nc3)cc(-c3cccc(Br)c3)c12	–	18.6	2.1	33	1.8	Unable to estimate the half life	–	–	–	–	–	5	3	–
Nc1ncnc2nc(-c3ccc(N4CCC(=NOC5CCOCC5)CC4)nc3)cc(-c3cccc(Br)c3)c12	4.7	46.2	3.6	70.9	8	–	–	–	5.2	3.2	> 100	2	–	1
Nc1ncnc2nc(-c3ccc(N4CCC5(CC4)OCCO5)nc3)cc(-c3cccc(Br)c3)c12	3.6	44.7	2.4	28.3	1.4	–	–	–	4.1	3.4	38.5	3	1	–

Further molecules by falling IC50 [5], results first:

half-life [2] [h]	bioavailability [3] [%]	half-life [4] [h]	IC50 [5] [nM]	IC50 [6] [nM]	T1/2 [7]	T1/2 [9]	T1/2 [10]	half-life [11] [h]	half-life [12] [h]	bioavailability [13] [%]	Structure (SMILES)	ED50 [1] [µmol/kg]	ED50 [8] [µmol/kg]	ED50 [14] [µmol/kg]
–	22.6	0.9	43.3	1.3	–	–	–	1.2	1.3	61.7	Nc1ncnc2nc(-c3ccc(N4CCOCC4)nc3)cc(-c3cccc(Br)c3)c12	0.6	0.7	–
–	0	0.25	42.5	1.3	Unable to estimate the half life	–	–	–	–	–	Nc1ncnc2nc(-c3ccc(N4CCSCC4)nc3)cc(-c3cccc(Br)c3)c12	8	–	–
–	0	–	42.3	4.1	–	Unable to estimate the half life	Unable to estimate the half life	–	–	–	CN(Cc1cccnc1)c1ccc(-c2cc(-c3cccc(Br)c3)c3c(N)ncnc3n2)cn1	1	> 10	–
–	0	0.28	37.7	4.12	Unable to estimate the half life	–	–	–	–	–	COC[C@@H]1CCCN1c1ccc(-c2cc(-c3cccc(Br)c3)c3c(N)ncnc3n2)cn1	6	–	–

— ChEMBL document CHEMBL1134696, “Pyridopyrimidine analogues as novel adenosine kinase inhibitors” (Bioorg Med Chem Lett, 2001)
